# According to patent US20120046314A1, “[…] USE IN TREATING OR […]” (MITOS, INC., priority 2005, published 2012):
# Legend:
# [1] = system: Hypoxia-inducible factor, alpha subunit (HIF1A); assay: Gene expression in adipose tissue of Tempol-fed mice (Affymetrix MOE430A 2.0 array); type: in vivo
# Method: (§1) In a further gene expression study, Tempol was administered to experimental mice at a dose of 5 g/kg of diet from 12 months through 15 months. Mice receiving the same diet without the addition of Tempol were used as a negative control. At the age of 15 months, the adipose tissue of the experimental animals was obtained. The expression of a broad spectrum of genes in the adipose tissue was assessed using chip-based microarray technology. Specifically, in this case an Affymetrix MOE430A 2.0 array, containing 12,960 genes, was employed. Such chips are well known in the art and are widely used to assess gene expression.
# Brain protein I3 (BRI3) = assay: as above; type: in vivo
# Method: as §1
# [2] = system: Glutathione S-transferase M3 (GSTM3); assay: as above; type: in vivo
# Method: as §1
# Cyclooxygenase 1 (COX-1) = assay: as above; type: in vivo
# Method: as §1
# [3] = system: Superoxide dismutase 2 (SOD2); assay: as above; type: in vivo
# Method: as §1
# Sirtuin 2 (SIRT2) = assay: as above; type: in vivo
# Method: as §1
# [4] = system: Uncoupling protein 2 (UCP2); assay: as above; type: in vivo
# Method: as §1
# [5] = system: p53-related apoptosis effector related to PMP-22 (PERP); assay: as above; type: in vivo
# Method: as §1
# [6] = system: cancer-related proteins in the cancerous tissue; assay: Example 1: protein levels in cancerous tissue of patient diagnosed with cancer after Tempol; type: in vivo, human; details: 70-kilogram patient diagnosed with cancer; 1500 mg per day for 180 days
# Method: (§2) A 70-kilogram patient diagnosed with cancer is administered a dose of 1500 mg of Tempol per day for 180 days. This may be administered in a single dose, or may be administered as a number of smaller doses over a 24-hour period: for example, three 500-mg doses at eight-hour intervals. Following treatment, the protein levels of elongation factor-1 delta, ADAM12, cathepsin B, peroxisome proliferator-activated receptor-δ, hypoxia-inducible factor alpha subunit, superoxide dismutase 2, uncoupling protein 2, and cyclooxygenase 1 in the cancerous tissue are reduced, and the levels of mitogen-activated protein kinase kinase 5, glutathione S-transferase M3, PERP, sirtuin 2, and brain protein I3 are increased.
# [7] = system: cancer-related proteins in the cancerous tissue; assay: Example 2: protein levels in patient with familial risk factors for cancer after Tempol; type: in vivo, human; details: 70-kilogram patient with familial risk factors, no symptoms; 1500 mg per day for 180 days
# Source text: as §2, with “This” for “A 70-kilogram patient diagnosed with cancer is administered a dose of 1500 mg of Tempol per day for 180 days. This”
# Cathepsin B = assay: Gene expression in cardiac tissue of Tempol-fed mice (chip-based microarray); type: in vivo
# Method: (§3) To assess the effects of Tempol on gene expression, Tempol was administered to experimental mice at a dose of 5 mg/g of food from 14 months to 31 months after birth. Mice receiving the same food without the addition of Tempol were used as a negative control. At the age of 31 months, the experimental animals were sacrificed and the hearts were surgically removed. The expression of a broad spectrum of genes in the cardiac tissue was assessed using chip-based microarray technology. Such chips are well known in the art and are widely used to assess gene expression.
# Elongation factor-1-δ = assay: as above; type: in vivo
# Method: as §3
# Meltrin-alpha (ADAM12) = assay: as above; type: in vivo
# Method: as §3
# [8] = system: Peroxisome Proliferator-Activated Receptor-δ; assay: as above; type: in vivo
# Method: as §3
# [9] = system: Mitogen activated protein kinase kinase 5; assay: as above; type: in vivo
# Method: as §3
# [10] = 5 g/kg of diet from 12 through 15 months
# [11] = Tempol-treated vs control mice, negative = downregulated, P Value 0.004
# [12] = reduction in Tempol-treated animals
# [13] = 5 mg/g of food from 14 to 31 months, mouse tp51
# [14] = 5 mg/g of food from 14 to 31 months, mouse tp52
# [15] = 5 mg/g of food from 14 to 31 months, mouse tp53
# [16] = Tempol-treated vs control mice, negative = downregulated
compound,measurement,setting,value
"CC1(C)CC(O)CC(C)(C)N1[O] [Tempol, 4-hydroxy-2,2,6,6-tetramethylpiperidine-1-oxyl]","HIF1A expression, Mean (Tempol-treated mice)",[1]; [10],2203
same,HIF1A expression Fold change,[1]; [11],−1.23 fold
same,HIF1 alpha expression reduced (fold),[1]; [12],1.23 fold
same,"BRI3 expression, Mean (Tempol-treated mice)",Brain protein I3 (BRI3); [10],1835
same,BRI3 expression Fold change,"Brain protein I3 (BRI3); Tempol-treated vs control mice, upregulated, P Value 0.003",1.18 fold
same,"GSTM3 expression, Mean (Tempol-treated mice)",[2]; [10],74
same,GSTM3 expression Fold change,"[2]; Tempol-treated vs control mice, upregulated, P Value 0.001",7.52 fold
same,"COX-1 expression, Mean (Tempol-treated mice)",Cyclooxygenase 1 (COX-1); [10],331
same,COX-1 expression Fold change,"Cyclooxygenase 1 (COX-1); Tempol-treated vs control mice, negative = downregulated, P Value 0.006",−1.18 fold
same,COX-1 expression reduced (fold),Cyclooxygenase 1 (COX-1); [12],1.18 fold
same,"SOD2 expression, Mean (Tempol-treated mice)",[3]; [10],4423
same,SOD2 expression Fold change,[3]; [11],−1.33 fold
same,SOD2 expression reduced (fold),[3]; [12],1.33 fold
same,"SIRT2 expression, Mean (Tempol-treated mice)",Sirtuin 2 (SIRT2); [10],686
same,SIRT2 expression Fold change,"Sirtuin 2 (SIRT2); Tempol-treated vs control mice, upregulated, P Value 0.048",1.16 fold
same,"UCP2 expression, Mean (Tempol-treated mice)",[4]; [10],2140
same,UCP2 expression Fold change,"[4]; Tempol-treated vs control mice, negative = downregulated, P Value 0.012",−1.61 fold
same,UCP2 expression reduced (fold),[4]; [12],1.61 fold
same,"PERP expression, Mean (Tempol-treated mice)",[5]; [10],82
same,PERP expression Fold change,"[5]; Tempol-treated vs control mice, upregulated, P Value 0.049",1.66 fold
same,"levels of MAPKK5, GSTM3, PERP, sirtuin 2 and brain protein I3",[6],increased
same,"protein levels of elongation factor-1 delta, ADAM12, cathepsin B, PPAR-δ, HIF alpha subunit, SOD2, UCP2 and COX-1 in the cancerous tissue",[6],reduced
same,"levels of MAPKK5, GSTM3, PERP, sirtuin 2 and brain protein I3",[7],increased
same,"protein levels of elongation factor-1 delta, ADAM12, cathepsin B, PPAR-δ, HIF alpha subunit, SOD2, UCP2 and COX-1 in the cancerous tissue",[7],reduced
same,"Cathepsin B expression, TEMPOL-treated mice tp51",Cathepsin B; [13],−12
same,"Cathepsin B expression, TEMPOL-treated mice tp52",Cathepsin B; [14],6
same,"Cathepsin B expression, TEMPOL-treated mice tp53",Cathepsin B; [15],13
same,Cathepsin B expression Fold change,Cathepsin B; [16],−2.8 fold
same,Cathepsin B expression reduced (fold),Cathepsin B; [12],2.8 fold
same,"Elongation factor-1-δ expression, TEMPOL-treated mice tp51",Elongation factor-1-δ; [13],12
same,"Elongation factor-1-δ expression, TEMPOL-treated mice tp52",Elongation factor-1-δ; [14],115
same,"Elongation factor-1-δ expression, TEMPOL-treated mice tp53",Elongation factor-1-δ; [15],185
same,Elongation factor-1-δ expression Fold change,Elongation factor-1-δ; [16],−5.9 fold
same,Elongation factor-1-δ expression reduced (fold),Elongation factor-1-δ; [12],5.9 fold
same,"ADAM12 expression, TEMPOL-treated mice tp51",Meltrin-alpha (ADAM12); [13],−16
same,"ADAM12 expression, TEMPOL-treated mice tp52",Meltrin-alpha (ADAM12); [14],−4
same,"ADAM12 expression, TEMPOL-treated mice tp53",Meltrin-alpha (ADAM12); [15],−14
same,ADAM12 expression Fold change,Meltrin-alpha (ADAM12); [16],−2.3 fold
same,ADAM12 expression reduced (fold),Meltrin-alpha (ADAM12); [12],2.3 fold
same,"PPAR-δ expression, TEMPOL-treated mice tp51",[8]; [13],1
same,"PPAR-δ expression, TEMPOL-treated mice tp52",[8]; [14],19
same,"PPAR-δ expression, TEMPOL-treated mice tp53",[8]; [15],28
same,PPAR-δ expression Fold change,[8]; [16],−2.3 fold
same,PPAR-δ expression reduced (fold),[8]; [12],2.3 fold
same,"MAPKK5 expression, TEMPOL-treated mice tp51",[9]; [13],41
same,"MAPKK5 expression, TEMPOL-treated mice tp52",[9]; [14],84
same,"MAPKK5 expression, TEMPOL-treated mice tp53",[9]; [15],63
same,MAPKK5 expression Fold change,"[9]; Tempol-treated vs control mice, upregulated",2.2 fold
